The source of these data is patent US20250171417A1, “HETEROCYCLIC DERIVATIVE, AND COMPOSITION AND PHARMACEUTICAL USE THEREOF” (Xizang Haisco Pharmaceutical Co., Ltd., priority 2021, published 2025).

The subject of data set [1] is Prostate cancer cells 22RV1. Description: Experiment on inhibiting 22RV1 cell proliferation (CellTiter-Glo, 7 days). The data set is classed as cell-based. To be noted: Homo sapiens, 168 h, 22RV1 cells, 7 days incubation, read-out: IC50 values for inhibition of 22RVI cells. In short, it runs like this:
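22RV1 cells at 2000/well in 1% charcoal-stripped-FBS phenol red-free medium, treated next day with compound for 7 days at 37 °C, 5% CO2. Viability by CellTiter-Glo luminescence; inhibition relative to DMSO vehicle, IC50 from dose-response fit.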
On the technique in general: Cellular ATP, detected with luciferase, serves as a proxy for viable cell number.

Data set [2] is described as follows: Pharmacokinetic test in rats. The format is in vivo. As to conditions: rat, plasma, po, male SD rats. The method, then: Test objective: In this experiment, a single dose of each test compound was administered to SD rats intravenously and intragastrically, and the concentrations of the test compounds in plasma of rats were measured to evaluate the pharmacokinetic characteristics of the test compounds in rats.
Experimental animals: male SD rats, 200-250 g, 6-8 weeks old, 6 rats/compound, purchased from Chengdu Ddossy Experimental Animals Co., Ltd.
Experimental method: on the day of the test, 6 SD rats were randomly grouped according to their body weight; the animals were fasted with water available for 12 to 14 hours one day before the administration of a test compound, and were fed 4 hours after the administration.
Sampling: Before and after the administration, 0.1 mL of blood samples were drawn from the orbits of the animals under isoflurane anesthesia, and placed in an EDTAK2 centrifuge tube. Centrifugation was carried out at 5000 rpm at 4° C. for 10 min, and the plasma was collected.
Time points for plasma collection in IV&PO group: 0, 5 min, 15 min, 30 min, 1 h, 2 h, 4 h, 6 h, 8 h, and 24 h.
Before analysis and detection, all samples were stored at −60° C. The samples were analyzed quantitatively by LC-MS/MS.

Where [3] appears, read: cells without a unit of their own (μM).
Where [4] appears, read: cells with nM printed beside the value.

Like-named read-outs stand apart in the source and are kept apart here.

By IC50 is commonly meant the concentration that gives 50% inhibition. One may read the bioavailability as dose-corrected exposure relative to a reference, in per cent. Low readings indicate poor availability, high ones good availability. One may read the AUC(0-t) as exposure summed from dosing to a finite time, without extrapolation to infinity. Take `CC(C)(C(=O)Nc1ccc(C#N)c(C(F)(F)F)c1)n1cc(C#CC2CN(c3ccc4c(c3)CN(C3CCC(=O)NC3=O)C4=O)C2)cn1` (stereo not shown) [Compound 6]: the IC50 in data set [1] (setting [3]) was < 1 µM. Further, in data set [2] (i.g. 5 mg/kg vs intravenous 2 mg/kg), the bioavailability was determined as 47.3 ± 16%. Also, the area under the curve AUC(0-t) in data set [2] (i.g. 5 mg/kg) was found to be 8960 ± 2940 ng·h/mL.
For `Cc1nn(C2(C(=O)Nc3ccc(C(F)(F)F)cc3Cl)CCC2)c(C)c1C#CC1CN(c2ccc3c(c2)C(=O)N(C2CCC(=O)NC2=O)C3=O)C1` (stereo not shown) [Compound 166, N-(2-chloro-4-(trifluoromethyl)phenyl)-1-(4-((1-(2-(2,6-dioxopiperidin-3-yl)-1,3-dioxoisoindolin-5-yl)azetidin-3-yl)ethynyl)-3,5-dimethyl-1H-pyrazol-1-yl)cyclobutane-1-carboxamide], the IC50 in data set [1] (setting [4]) is < 0.05 µM.
The same measure, in the same setting: under `C=CCc1cc(C(F)(F)F)ccc1NC(=O)C(C)(C)n1cc(C#CC2CN(c3ccc4c(c3)C(=O)N(C3CCC(=O)NC3=O)C4=O)C2)cn1` (stereo not shown) [Compound 169, N-(2-allyl-4-(trifluoromethyl)phenyl)-2-(4-((1-(2-(2,6-dioxopiperidin-3-yl)-1,3-dioxoisoindolin-5-yl)azetidin-3-yl)ethynyl)-1H-pyrazol-1-yl)-2-methylpropanamide] stands < 0.05 µM; under `CC(C)(C(=O)Nc1ccc(C#N)cc1-n1cccn1)n1cc(C#CC2CN(c3ccc4c(c3)C(=O)N(C3CCC(=O)NC3=O)C4=O)C2)cn1` (stereo not shown) [Compound 172, N-(4-cyano-2-(1H-pyrazol-1-yl)phenyl)-2-(4-((1-(2-(2,6-dioxopiperidin-3-yl)-1,3-dioxoisoindolin-5-yl)azetidin-3-yl)ethynyl)-1H-pyrazol-1-yl)-2-methylpropanamide], < 0.05 µM.
Still for that read-out and setting: as for `[2H]C([2H])([2H])C(C(=O)Nc1ccc(C(F)(F)F)cc1C#CC)(n1cc(C#CC2CN(c3ccc4c(c3)C(=O)N(C3CCC(=O)NC3=O)C4=O)C2)cn1)C([2H])([2H])[2H]` (stereo not shown) [Compound 175, 2-(4-((1-(2-(2,6-dioxopiperidin-3-yl)-1,3-dioxoisoindolin-5-yl)azetidin-3-yl)ethynyl)-1H-pyrazol-1-yl)-2-(methyl-d3)—N-(2-(prop-1-yn-1-yl)-4-(trifluoromethyl)phenyl) propanamide-d3], the figure is < 0.1 µM; as for `Cn1c(C(F)(F)F)ccc(NC(=O)C(C)(C)n2cc(C#CC3CN(c4ccc5c(c4)C(=O)N(C4CCC(=O)NC4=O)C5=O)C3)cn2)c1=O` (stereo not shown) [Compound 178], < 0.05 µM; as for `CN(C)c1ccc(NC(=O)C2(n3cc(C#CC4CN(c5ccc6c(c5)C(=O)N(C5CCC(=O)NC5=O)C6=O)C4)cn3)CCC2)c(Cl)c1` (stereo not shown) [Compound 181, N-(2-chloro-4-(dimethylamino)phenyl)-1-(4-(2-(1-(2-(2,6-dioxopiperidin-3-yl)-1,3-dioxo-2,3-dihydro-1H-isoindol-5-yl)azetidin-3-yl)ethynyl)-1H-pyrazol-1-yl)cyclobutane-1-carboxamide], < 0.05 µM.
For `CN(C)c1cc(C(F)(F)F)ccc1NC(=O)C(C)(C)n1cc(C#CC2CN(c3ccc4c(c3)C(=O)N(C3CCC(=O)NC3=O)C4=O)C2)cn1` (stereo not shown) [Compound 182, N-(2-(dimethylamino)-4-(trifluoromethyl)phenyl)-2-(4-((1-(2-(2,6-dioxopiperidin-3-yl)-1,3-dioxoisoindolin-5-yl)azetidin-3-yl)ethynyl)-1H-pyrazol-1-yl)-2-methylpropanamide], the half-maximal inhibitory concentration (IC50) in data set [1] (setting [4]) is < 0.1 µM.
On the same count and under the same terms, under `Cc1nn(C(C)(C)C(=O)Nc2ccc(C#N)cc2C2CC2)cc1C#CC1CN(c2ccc3c(c2)C(=O)N(C2CCC(=O)NC2=O)C3=O)C1` (stereo not shown) [Compound 184, N-(4-cyano-2-cyclopropylphenyl)-2-(4-((1-(2-(2,6-dioxopiperidin-3-yl)-1,3-dioxoisoindolin-5-yl)azetidin-3-yl)ethynyl)-3-methyl-1H-pyrazol-1-yl)-2-methylpropanamide] stands < 0.1 µM; under `[2H]C([2H])([2H])C(C(=O)Nc1ccc(C#N)cc1C1CC1)(n1cc(C#CC2CN(c3ccc4c(c3)C(=O)N(C3CCC(=O)NC3=O)C4=O)C2)cn1)C([2H])([2H])[2H]` (stereo not shown) [Compound 186, N-(4-cyano-2-cyclopropylphenyl)-2-(4-((1-(2-(2,6-dioxopiperidin-3-yl)-1,3-dioxoisoindolin-S-yl)azetidin-3-yl)ethynyl)-1H-pyrazol-1-yl)-2,2-(dimethyl-d6) acetamide], < 0.1 µM; under `[2H]C([2H])([2H])C(C(=O)Nc1ccc(C(F)(F)F)cc1C1CC1)(n1cc(C#CC2CN(c3ccc4c(c3)C(=O)N(C3CCC(=O)NC3=O)C4=O)C2)cn1)C([2H])([2H])[2H]` (stereo not shown) [Compound 187, N-(2-cyclopropyl-4-(trifluoromethyl)phenyl)-2-(4-((1-(2-(2,6-dioxopiperidin-3-yl)-1,3-dioxoisoindolin-5-yl)azetidin-3-yl)ethynyl)-1H-pyrazol-1-yl)-2,2-(dimethyl-d6) acetamide], < 0.1 µM.
`C#Cc1cc(C#N)ccc1NC(=O)C(C)(C)n1cc(C#CC2CN(c3ccc4c(c3)C(=O)N(C3CCC(=O)NC3=O)C4=O)C2)cn1` (stereo not shown) [Compound 189, N-(4-cyano-2-ethynylphenyl)-2-(4-((1-(2-(2,6-dioxopiperidin-3-yl)-1,3-dioxoisoindolin-5-yl)azetidin-3-yl)ethynyl)-1H-pyrazol-1-yl)-2-methylpropanamide]: the concentration for half-maximal inhibition (IC50) in data set [1] (setting [4]) is < 0.1 µM.
Still for that read-out and setting: under `CC(C)(C(=O)Nc1ccc(C(F)(F)F)cc1C=C(F)F)n1cc(C#CC2CN(c3ccc4c(c3)C(=O)N(C3CCC(=O)NC3=O)C4=O)C2)cn1` (stereo not shown) [Compound 190, N-(2-(2,2-difluorovinyl)-4-(trifluoromethyl)phenyl)-2-(4-((1-(2-(2,6-dioxopiperidin-3-yl)-1,3-dioxoisoindolin-5-yl)azetidin-3-yl)ethynyl)-1H-pyrazol-1-yl)-2-methylpropanamide] stands < 0.1 µM; under `CC#Cc1cc(C(F)(F)F)ccc1NC(=O)C(C)(C)n1nc(C)c(C#CC2CN(c3ccc4c(c3)C(=O)N(C3CCC(=O)NC3=O)C4=O)C2)c1C` (stereo not shown) [Compound 192, 2-(4-((1-(2-(2,6-dioxopiperidin-3-yl)-1,3-dioxoisoindolin-5-yl)azetidin-3-yl)ethynyl)-3,5-dimethyl-1H-pyrazol-1-yl)-2-methyl-N-(2-(prop-1-yn-1-yl)-4-(trifluoromethyl)phenyl) propanamide], < 0.1 µM.
In the case of `CC#Cc1cc(C(F)(F)F)ccc1NC(=O)C(C)(C)n1cc(C#CC2CN(c3ccc4c(c3)C(=O)N(C3CCC(=O)NC3=O)C4=O)C2)c(C)n1` (stereo not shown) [Compound 193, 2-(4-((1-(2-(2,6-dioxopiperidin-3-yl)-1,3-dioxoisoindolin-5-yl)azetidin-3-yl)ethynyl)-3-methyl-1H-pyrazol-1-yl)-2-methyl-N-(2-(prop-1-yn-1-yl)-4-(trifluoromethyl)phenyl) propanamide], in data set [1] (setting [4]), the IC50 is < 0.1 µM.
On the same count and under the same terms, under `CC#Cc1cc(C(F)(F)F)ccc1NC(=O)C(C)(C)n1ncc(C#CC2CN(c3ccc4c(c3)C(=O)N(C3CCC(=O)NC3=O)C4=O)C2)c1C` (stereo not shown) [Compound 194, 2-(4-((1-(2-(2,6-dioxopiperidin-3-yl)-1,3-dioxoisoindolin-5-yl)azetidin-3-yl)ethynyl)-5-methyl-1H-pyrazol-1-yl)-2-methyl-N-(2-(prop-1-yn-1-yl)-4-(trifluoromethyl)phenyl) propanamide] stands < 0.1 µM.
For the compound `O=C1CCC(N2C(=O)c3ccc(N4CC(N5Cc6cn(C7(C(=O)Nc8ccc(C(F)(F)F)cc8Cl)CCC7)nc6C5)C4)cc3C2=O)C(=O)N1` (stereo not shown) [Compound 197, N-(2-chloro-4-(trifluoromethyl)phenyl)-1-(5-(1-(2-(2,6-dioxopiperidin-3-yl)-1,3-dioxoisoindolin-5-yl)azetidin-3-yl)-5,6-dihydropyrrolo[3,4-c]pyrazol-2 (4H)-yl)cyclobutane-1-carboxamide], in data set [1] (setting [3]), the half-maximal inhibitory concentration (IC50) was < 1 µM.
For `CC(C)(C(=O)Nc1ccc(C#N)cc1C1CC1)n1cc(C#CC2CN(c3ccc4c(c3)C(=O)N(C3CCC(=O)NC3=O)C4=O)C2)c(C#N)n1` (stereo not shown) [Compound 201, N-(4-cyano-2-cyclopropylphenyl)-2-(3-cyano-4-((1-(2-(2,6-dioxopiperidin-3-yl)-1,3-dioxoisoindolin-5-yl)azetidin-3-yl)ethynyl)-1H-pyrazol-1-yl)-2-methylpropanamide], the IC50 in data set [1] (setting [4]) was < 0.1 µM.
Still for that read-out and setting: as for `CC#Cc1cc(C(F)(F)F)ccc1NC(=O)C(C)(C)n1cc(C#CC2CN(c3ccc4c(c3)C(=O)N(C3CCC(=O)NC3=O)C4=O)C2)c(C#N)n1` (stereo not shown) [Compound 202, 2-(3-cyano-4-((1-(2-(2,6-dioxopiperidin-3-yl)-1,3-dioxoisoindolin-5-yl)azetidin-3-yl)ethynyl)-1H-pyrazol-1-yl)-2-methyl-N-(2-(prop-1-yn-1-yl)-4-(trifluoromethyl)phenyl) propanamide], the figure is < 0.1 µM.
`O=C1CCC(N2C(=O)c3ccc(N4CC(C#Cc5cn(C6(C(=O)Nc7ccc(C(F)(F)F)cc7Cl)CCC6)cn5)C4)cc3C2=O)C(=O)N1` (stereo not shown) [Trifluoroacetate of compound 139, N-(2-chloro-4-(trifluoromethyl)phenyl)-1-(4-((1-(2-(2,6-dioxopiperidin-3-yl)-1,3-dioxoisoindolin-5-yl)azetidin-3-yl)ethynyl)-1H-imidazol-1-yl)cyclobutane-1-carboxamide]: the IC50 in data set [1] (setting [3]) is < 1 µM.
